Results: PMC8953565 (2022)

Assays:
[1] = tested on: FAM-MG-36-17 (DNA, aptamer) CGCAGCGCGGCAGACAGTCAGGCTCAGCACGTGGCA; test: graphene oxide FRET fluorescence recovery; conditions: 137 mM NaCl, 2.7 mM KCl, 1 mM CaCl2, 0.5 mM MgCl2; DPBS pH 7.4, room temperature; 10 nM aptamer on GO; compound at twice the MG concentration
[2] = tested on: FAM-MG-36-12 (DNA, aptamer) CCATGCGACGGACAGCACGTGTCACCGCGATCAGCC; test: graphene oxide FRET fluorescence recovery; conditions: 137 mM NaCl, 2.7 mM KCl, 1 mM CaCl2, 0.5 mM MgCl2; DPBS pH 7.4, room temperature; 10 nM aptamer on GO; compound at twice the MG concentration
[3] = tested on: FAM-MG-76-16-6A (DNA, aptamer) AAAAAAGTTCGTGGTGTGCTGGATGTCCACCCGACAGCCAGTCACGCGCATCGTACAGACCGTGACACATCCAGCAGCACGA; test: graphene oxide FRET fluorescence recovery; conditions: 137 mM NaCl, 2.7 mM KCl, 1 mM CaCl2, 0.5 mM MgCl2; DPBS pH 7.4, room temperature; 10 nM aptamer on GO; compound at twice the MG concentration
[4] = tested on: MG-21 (DNA, aptamer) CCATGCAGCCAGCGTCCACCGTCCGTACAGTACGTG; test: ITC; conditions: 137 mM NaCl, 2.7 mM KCl, 1 mM CaCl2, 0.5 mM MgCl2; DPBS pH 7.4, 25 °C; screen with 100 μM candidate and 10 mM MG; weak thermal variation
[5] = tested on: MG-2 (DNA, aptamer) AGCCCGAGCTGCAGCCAGAATGTGCCACGTGTACGT; test: ITC; conditions: 137 mM NaCl, 2.7 mM KCl, 1 mM CaCl2, 0.5 mM MgCl2; DPBS pH 7.4, 25 °C; screen with 100 μM candidate and 10 mM MG; weak thermal variation
[6] = tested on: MG-8 (DNA, aptamer) TGTGCCCACAACTCCAGTCACGTTCGTCCAGCTCAG; test: ITC; conditions: 137 mM NaCl, 2.7 mM KCl, 1 mM CaCl2, 0.5 mM MgCl2; DPBS pH 7.4, 25 °C; screen with 100 μM candidate and 10 mM MG; weak thermal variation
[7] = tested on: MG-7 (DNA, aptamer) CGAGCCGAACGAGACGTCCAGTCCGTGCCCACGCAC; test: ITC; conditions: 137 mM NaCl, 2.7 mM KCl, 1 mM CaCl2, 0.5 mM MgCl2; DPBS pH 7.4, 25 °C; screen with 100 μM candidate and 10 mM MG; weak thermal variation
[8] = tested on: MG-20 (DNA, aptamer) CGCACAGCAAGACAGCCAGTCAACAGCCGCGAATGT; test: ITC; conditions: 137 mM NaCl, 2.7 mM KCl, 1 mM CaCl2, 0.5 mM MgCl2; DPBS pH 7.4, 25 °C; screen with 100 μM candidate and 10 mM MG; weak thermal variation
[9] = tested on: MG-22 (DNA, aptamer) CGCGCACAGACAGCGTCATGGCCACGTACAGTTCCT; test: ITC; conditions: 137 mM NaCl, 2.7 mM KCl, 1 mM CaCl2, 0.5 mM MgCl2; DPBS pH 7.4, 25 °C; screen with 100 μM candidate and 10 mM MG; weak thermal variation
[10] = tested on: MG-1 (DNA, aptamer) CCGCCACAGGACAGCCAGTCTGATCGCCATGACGAC; test: ITC; conditions: 137 mM NaCl, 2.7 mM KCl, 1 mM CaCl2, 0.5 mM MgCl2; DPBS pH 7.4, 25 °C; screen with 100 μM candidate and 10 mM MG; weak thermal variation
[11] = tested on: MG-15 (DNA, aptamer) CGGCCAGACGACAGCCAGTCACCGGACACGATCAGG; test: ITC; conditions: 137 mM NaCl, 2.7 mM KCl, 1 mM CaCl2, 0.5 mM MgCl2; DPBS pH 7.4, 25 °C; screen with 100 μM candidate and 10 mM MG; weak thermal variation
[12] = tested on: MG-23 (DNA, aptamer) CGCTACGACAGACAGCGTCGAGCACACAACGTTGCG; test: ITC; conditions: 137 mM NaCl, 2.7 mM KCl, 1 mM CaCl2, 0.5 mM MgCl2; DPBS pH 7.4, 25 °C; screen with 100 μM candidate and 10 mM MG; weak thermal variation
[13] = tested on: MG-11 (DNA, aptamer) CATGCCCAACGACATGCAGCACGTGGCCATGCACAA; test: ITC; conditions: 137 mM NaCl, 2.7 mM KCl, 1 mM CaCl2, 0.5 mM MgCl2; DPBS pH 7.4, 25 °C; screen with 100 μM candidate and 10 mM MG; weak thermal variation
[14] = tested on: MG-5 (DNA, aptamer) CCCCGACAGCCGGCACAATGTGTCTGCCACGGACGT; test: ITC; conditions: 137 mM NaCl, 2.7 mM KCl, 1 mM CaCl2, 0.5 mM MgCl2; DPBS pH 7.4, 25 °C; screen with 100 μM candidate and 10 mM MG; weak thermal variation
[15] = tested on: MG-9 (DNA, aptamer) TCTCGCAACAGCCAGCGTCATGTGACCACGGAACCA; test: ITC; conditions: 137 mM NaCl, 2.7 mM KCl, 1 mM CaCl2, 0.5 mM MgCl2; DPBS pH 7.4, 25 °C; screen with 100 μM candidate and 10 mM MG; weak thermal variation
[16] = tested on: MG-24 (DNA, aptamer) ACGCACGTACGGCCAGTCATATGCGCACCGCGTTCA; test: ITC; conditions: 137 mM NaCl, 2.7 mM KCl, 1 mM CaCl2, 0.5 mM MgCl2; DPBS pH 7.4, 25 °C; screen with 100 μM candidate and 10 mM MG; weak thermal variation
[17] = tested on: MG-36-17 (DNA, aptamer) CGCAGCGCGGCAGACAGTCAGGCTCAGCACGTGGCA; test: ITC; conditions: 137 mM NaCl, 2.7 mM KCl, 1 mM CaCl2, 0.5 mM MgCl2; DPBS pH 7.4, 25 °C; 2 mM MG into 5 μM aptamer; one-site model
[18] = tested on: MG-36-12 (DNA, aptamer) CCATGCGACGGACAGCACGTGTCACCGCGATCAGCC; test: ITC; conditions: 137 mM NaCl, 2.7 mM KCl, 1 mM CaCl2, 0.5 mM MgCl2; DPBS pH 7.4, 25 °C; 2 mM MG into 5 μM aptamer; one-site model
[19] = tested on: MG-19 (DNA, aptamer) CGCAGACAGCCAGTCAGGGAGCGTCCAGTCCGACAC; test: ITC; conditions: 137 mM NaCl, 2.7 mM KCl, 1 mM CaCl2, 0.5 mM MgCl2; DPBS pH 7.4, 25 °C; screen with 100 μM candidate and 10 mM MG; weak thermal variation
[20] = tested on: MG-6 (DNA, aptamer) CGCAACGCGGCAACAGAGCACAGATCGCACAGACTG; test: ITC; conditions: 137 mM NaCl, 2.7 mM KCl, 1 mM CaCl2, 0.5 mM MgCl2; DPBS pH 7.4, 25 °C; screen with 100 μM candidate and 10 mM MG; weak thermal variation
[21] = tested on: MG-36-16 (DNA, aptamer) CCACCCGACAGCCAGTCACGCGCATCGTACAGACCG; test: ITC; conditions: 137 mM NaCl, 2.7 mM KCl, 1 mM CaCl2, 0.5 mM MgCl2; DPBS pH 7.4, 25 °C; 2 mM MG into 5 μM aptamer; one-site model
[22] = tested on: MG-4 (DNA, aptamer) TGCAACACAACAGCCAGTCATGCCGGTGCACAGTCA; test: ITC; conditions: 137 mM NaCl, 2.7 mM KCl, 1 mM CaCl2, 0.5 mM MgCl2; DPBS pH 7.4, 25 °C; screen with 100 μM candidate and 10 mM MG; weak thermal variation
[23] = tested on: MG-18 (DNA, aptamer) CCGCAGCACGGTCGTACAGCAGCTGCCACGGCATCC; test: ITC; conditions: 137 mM NaCl, 2.7 mM KCl, 1 mM CaCl2, 0.5 mM MgCl2; DPBS pH 7.4, 25 °C; screen with 100 μM candidate and 10 mM MG; weak thermal variation
[24] = tested on: MG-3 (DNA, aptamer) CGAGACACAGTCACGTGCATCCAGTCAGCATGCGTC; test: ITC; conditions: 137 mM NaCl, 2.7 mM KCl, 1 mM CaCl2, 0.5 mM MgCl2; DPBS pH 7.4, 25 °C; screen with 100 μM candidate and 10 mM MG; weak thermal variation
[25] = tested on: MG-13 (DNA, aptamer) ACGCATCGCGAACAGCCGTGCCGTGTCCACGTACAG; test: ITC; conditions: 137 mM NaCl, 2.7 mM KCl, 1 mM CaCl2, 0.5 mM MgCl2; DPBS pH 7.4, 25 °C; screen with 100 μM candidate and 10 mM MG; weak thermal variation
[26] = tested on: MG-10 (DNA, aptamer) CGCGCAGCGGCAGACAGTCAGACTGCGACGCACGTT; test: ITC; conditions: 137 mM NaCl, 2.7 mM KCl, 1 mM CaCl2, 0.5 mM MgCl2; DPBS pH 7.4, 25 °C; screen with 100 μM candidate and 10 mM MG; weak thermal variation
[27] = tested on: MG-14 (DNA, aptamer) CACCGCCAGGGACAGCCAGTCACGTAGCCCGGAACG; test: ITC; conditions: 137 mM NaCl, 2.7 mM KCl, 1 mM CaCl2, 0.5 mM MgCl2; DPBS pH 7.4, 25 °C; screen with 100 μM candidate and 10 mM MG; weak thermal variation

Question: How did the binding [1] turn out when CN(C)c1ccc(C(=C2C=CC(=[N+](C)C)C=C2)c2ccc(N(C)C)cc2)cc1 was run?
Answer: The binding was “no”.

Question: What about the binding [2] of the same molecule?
Answer: The binding was “no”.

Question: What about the binding [3] of the same molecule?
Answer: Its binding is “no”.

Question: CN(C)c1ccc(C(=C2C=CC(=[N+](C)C)C=C2)c2ccccc2)cc1 was tested. Which binding [4] did it give?
Answer: The binding was “no”.

Question: And the binding [5]?
Answer: Its binding is “no”.

Question: What about the binding [6] of the same molecule?
Answer: Its binding is “no”.

Question: What about the binding [7] of the same molecule?
Answer: The binding was “no”.

Question: What about the binding [8] of the same molecule?
Answer: The binding was “no”.

Question: And the binding [9]?
Answer: Its binding is “no”.

Question: And the binding [10]?
Answer: Its binding is “no”.

Question: And the binding [11]?
Answer: Its binding is “no”.

Question: And the binding [12]?
Answer: Its binding is “no”.

Question: And the binding [13]?
Answer: Its binding is “no”.

Question: And the binding [14]?
Answer: The binding was “no”.

Question: What about the binding [15] of the same molecule?
Answer: Its binding is “no”.

Question: And the binding [16]?
Answer: Its binding is “no”.

Question: And the Kd [17]?
Answer: Its Kd is 102.46 µM.

Question: What about the Kd [18] of the same molecule?
Answer: Its Kd is 169.78 µM.

Question: What about the binding [19] of the same molecule?
Answer: The binding was “no”.

Question: What about the binding [20] of the same molecule?
Answer: Its binding is “no”.

Question: And the Kd [21]?
Answer: The Kd was 71.94 µM.

Question: What about the binding [22] of the same molecule?
Answer: Its binding is “no”.

Question: What about the binding [23] of the same molecule?
Answer: Its binding is “no”.

Question: And the binding [24]?
Answer: Its binding is “no”.

Question: What about the binding [25] of the same molecule?
Answer: The binding was “no”.

Question: What about the binding [26] of the same molecule?
Answer: The binding was “no”.

Question: What about the binding [27] of the same molecule?
Answer: The binding was “no”.

Question: For CN(C)c1ccc(C(c2ccccc2)c2ccc(N(C)C)cc2)cc1, which binding [1] is on record?
Answer: The binding was “no”.

Question: What about the binding [2] of the same molecule?
Answer: Its binding is “no”.

Question: And the binding [3]?
Answer: The binding was “no”.

Question: For Cc1cc(C)nc(NS(=O)(=O)c2ccc(N)cc2)n1, which binding [1] is on record?
Answer: Its binding is “no”.

Question: And the binding [2]?
Answer: The binding was “no”.

Question: Which binding [2] does the source give for NN1CC(=O)NC1=O here?
Answer: Its binding is “no”.

Question: NN1CC(CN2CCOCC2)OC1=O (stereo not shown) was tested. Which binding [2] did it give?
Answer: Its binding is “no”.

Question: With NN1CCOC1=O as the molecule, how does the binding [2] read?
Answer: The binding was “no”.

Question: How did the binding [2] turn out when NNC(N)=O was run?
Answer: Its binding is “no”.

Question: How did the binding [2] turn out when Nc1ccc(S(=O)(=O)Nc2ccccn2)cc1 was run?
Answer: Its binding is “no”.

Question: For O=C(N[C@H](CO)[C@H](O)c1ccc([N+](=O)[O-])cc1)C(Cl)Cl, which binding [1] is on record?
Answer: The binding was “no”.

Question: What about the binding [2] of the same molecule?
Answer: Its binding is “no”.

Question: What about the binding [3] of the same molecule?
Answer: Its binding is “no”.
